PubChem BioAssay AID1508612

Assay: passive permeability, PAMPA, ADME assay (AID 1508612)
Conditions: pH 7.4, 30.0 min, 50.0 µM
With COc1ccc(C(=O)NC2CCCc3c2[nH]c2c(Cl)cccc32)cc1OC (configuration not stated) the Papp was 139 ×10⁻⁶ cm/s. For CCOc1ccc(CCNC(=O)c2cc3sccc3n2CCN(C)C)cc1OCC, the Papp was > 1000 ×10⁻⁶ cm/s. Compound O=C(NCCCc1ccccc1)C1CCN(c2nc(-c3ccc(Br)cc3)cs2)CC1 has a Papp of 18 ×10⁻⁶ cm/s. Compound COc1ccc(-n2nc(C3CCCN(C(=O)c4ccccc4F)C3)[nH]c2=O)cc1 (configuration not stated) has a Papp of 476 ×10⁻⁶ cm/s. O=c1[nH]nc(Sc2ncc([N+](=O)[O-])s2)n1-c1ccc2c(c1)OCCO2 showed a Papp of 137 ×10⁻⁶ cm/s. For CCCc1ccc(C(=O)NC(=O)c2ccccc2O)cc1, the Papp was < 1 ×10⁻⁶ cm/s. In the case of CCOC(=O)c1[nH]c(C)c(CCC(=O)N2CCN(c3cc(Cl)ccc3C)CC2)c1C, the Papp was > 1000 ×10⁻⁶ cm/s. Cc1cc(SCc2sc(-c3ccc(C(F)(F)F)c(F)c3)nc2C)ccc1OCC(=O)O showed a Papp of 417 ×10⁻⁶ cm/s. Compound O=C(Cc1ccc(Cl)c(Cl)c1)Nc1ccc(S(=O)(=O)Nc2cccc(O)c2)cc1 has a Papp of 15.6 ×10⁻⁶ cm/s. In the case of CC(Nc1nc(N2CCN(S(C)(=O)=O)CC2)nc2ccccc12)c1ccccc1 (configuration not stated), the Papp was > 1000 ×10⁻⁶ cm/s. In the case of Cc1ccc(-c2cc(C(=O)Nc3ccccn3)c3ccccc3n2)cc1, the Papp was > 1000 ×10⁻⁶ cm/s. For CN1CC=C(c2nc(Nc3ccc(F)c(F)c3)c3ccccc3n2)CC1, the Papp was > 1000 ×10⁻⁶ cm/s. Work on COc1ccc(-c2ccc(Nc3nc(-c4ccncc4)nc4ccccc34)cc2F)cc1F yielded a Papp of 39.9 ×10⁻⁶ cm/s. For CCNC(=O)N1CCCN(c2ccc(C(=O)NCCc3ccc(Cl)cc3Cl)cc2NC(=O)c2cccc(Cl)c2)CC1, the Papp was 202 ×10⁻⁶ cm/s. CS(=O)(=O)Nc1cccc(-c2nccc(-n3ccnc3)n2)c1 gave a Papp of 355 ×10⁻⁶ cm/s. For O=C(/C=C/c1cn(CC(O)CN2CCCCCC2)c2ccccc12)c1ccc(Br)cc1 (configuration not stated), the Papp was 931 ×10⁻⁶ cm/s. For O=C(O)CCC(=O)Nc1nc(-c2ccccc2)cs1, the Papp was < 1 ×10⁻⁶ cm/s. In the case of COc1ccc(-c2ccc3c(N4CCOC[C@H]4C)nc(N4CCOC[C@H]4C)nc3n2)cc1CO, the Papp was 182 ×10⁻⁶ cm/s. Compound CCCCN(C)C(=O)c1c(C)sc2ccn(CCC)c(=O)c12 has a Papp of 124 ×10⁻⁶ cm/s. For O=C(Nc1nc(-c2ccccc2)cs1)c1ccncc1NS(=O)(=O)c1ccc2c(c1)CCC2, the Papp was > 1000 ×10⁻⁶ cm/s. In the case of CCN1CCc2c(sc(NC(=O)Nc3ccc(Cl)c(Cl)c3)c2C(N)=O)C1, the Papp was 435 ×10⁻⁶ cm/s. Work on Cc1cc(C)c(C(=O)Nc2cccc([S+](=O)([O-])Nc3ccc(Br)cc3)c2)[nH]1 yielded a Papp of 737 ×10⁻⁶ cm/s. In the case of CN1CCN(CCCN2c3ccccc3Sc3ccc(S(=O)(=O)N(C)C)cc32)CC1, the Papp was > 1000 ×10⁻⁶ cm/s. COc1ccc(NC(=O)c2ccccc2)cc1S(=O)(=O)Nc1ccc(Br)cc1 showed a Papp of 731 ×10⁻⁶ cm/s. In the case of COc1ccc(-c2nc3c(c(SCC(=O)Nc4ccc(C(=O)O)cc4)n2)Cc2ccccc2O3)cc1, the Papp was 1.18 ×10⁻⁶ cm/s. With CC1CCCCN1c1ncnc(N)c1[N+](=O)[O-] (configuration not stated) the Papp was 269 ×10⁻⁶ cm/s. For O=C(NCCc1ccccc1)C1CCN(c2nc(-c3ccc(Br)cc3)cs2)CC1, the Papp was < 1 ×10⁻⁶ cm/s. Compound CC(=O)Nc1cccc(-c2nc(-c3c(C)noc3C)cc3c2cc(-c2ccccc2)n3C)c1 has a Papp of 455 ×10⁻⁶ cm/s. For CC(=O)c1c(C)[nH]c(C(=O)Nc2cccc([S+](=O)([O-])N3CCC(F)(F)CC3)c2)c1C, the Papp was > 1000 ×10⁻⁶ cm/s. Work on CCOc1ccc(CCNC(=O)c2ccnn2Cc2ccccn2)cc1OCC yielded a Papp of 177 ×10⁻⁶ cm/s. With Cc1ccc(C(=O)Nc2cccc(C(F)(F)F)c2)cc1Nc1nc(-c2cccnc2)nc2c1cnn2C the Papp was 283 ×10⁻⁶ cm/s. Work on COc1cccc(CNC(=O)c2c(OC)cc(=O)n3c2CCN(C(=O)c2ccc(C)cc2C)CC3)c1 yielded a Papp of 93.9 ×10⁻⁶ cm/s. For COc1cc2c(C(=O)N3CCN(c4cccc(C(F)(F)F)c4)CC3)cn(CC(C)C)c(=O)c2cc1OC, the Papp was > 1000 ×10⁻⁶ cm/s. CCc1cccc(NC(=O)c2cc(-c3ccc[nH]3)n[nH]2)c1 gave a Papp of 87.7 ×10⁻⁶ cm/s. For Cc1cc(NS(=O)(=O)c2ccc(NC(=O)Cc3ccc(Cl)c(Cl)c3)cc2)n(C)n1, the Papp was 31.7 ×10⁻⁶ cm/s. With NC(=O)C1CCN(c2nc(-c3ccccc3-c3ccccc3)cs2)CC1 the Papp was 606 ×10⁻⁶ cm/s. With Cn1cc(S(=O)(=O)N2CCCCCC2)cc1C(=O)Nc1ccc(Cl)c(C(F)(F)F)c1 the Papp was 305 ×10⁻⁶ cm/s. For O=C1CCCC2=C1C(c1[nH]ncc1Cl)N=C(Nc1nc3c(Cl)cccc3o1)N2 (configuration not stated), the Papp was 162 ×10⁻⁶ cm/s. For Cc1ccc(NC(=O)c2cc(-c3ccc[nH]3)n[nH]2)cc1F, the Papp was 157 ×10⁻⁶ cm/s. O=C(Cc1ccc(Cl)c(Cl)c1)Nc1ccc(S(=O)(=O)Nc2nncs2)cc1 showed a Papp of 1.5 ×10⁻⁶ cm/s. For O=C(Cc1ccc(Cl)cc1)Nc1cnccc1C(=O)O, the Papp was 7 ×10⁻⁶ cm/s. Work on CC(=O)NCCNC[C@@H]1C=C(C)[C@H](Cc2nnc(-c3ccccc3)o2)C[C@H]1C(C)C yielded a Papp of 624 ×10⁻⁶ cm/s. Compound Cc1sc(NC(=O)Cc2ccc3c(c2)OCO3)nc1-c1ccc2c(c1)CCN2C(=O)c1ccccc1F has a Papp of 1.4 ×10⁻⁶ cm/s. In the case of NC(=O)NCC(=O)N[C@H]1CC[C@H](Nc2nccc(-c3ccncc3)n2)C1, the Papp was < 1 ×10⁻⁶ cm/s. Work on NC(=O)c1ccc(-c2ncc3cnc(-c4cccc(F)c4)cn23)cc1 yielded a Papp of 480 ×10⁻⁶ cm/s. In the case of Cc1cc(C)nc(NC(=S)N2CCN(c3cc(C(F)(F)F)nc4ccc(C(F)(F)F)cc34)CC2)c1, the Papp was 636 ×10⁻⁶ cm/s. In the case of Cn1ccc2c(C(=O)NCc3cccnc3)nc(-c3ccccc3C#N)cc21, the Papp was 732 ×10⁻⁶ cm/s. For Fc1cc(Nc2nc(-c3ccncc3)nc3ccccc23)ccc1-c1cccc(OC(F)(F)F)c1, the Papp was 23.5 ×10⁻⁶ cm/s. Compound FC(F)(F)c1cccc(Sc2nc(-c3ccccc3)nnc2C(F)(F)F)c1 has a Papp of 17 ×10⁻⁶ cm/s. In the case of Cc1nc2sccn2c(=O)c1S(=O)(=O)Nc1ccc(N2CCN(C)CC2)cc1, the Papp was 289 ×10⁻⁶ cm/s. For COC[C@@H]1CN(C(=O)c2n[nH]c3ccccc23)C[C@H]1c1nc(C)no1, the Papp was 66.8 ×10⁻⁶ cm/s. In the case of O=C1Nc2cc(Cl)ccc2Nc2cscc21, the Papp was 478 ×10⁻⁶ cm/s.
